Test results taken from patent EP0464233A1, “Pharmaceutical combinations against malaria” (priority 1990, dated 1992).
Like-named read-outs stand apart in the source and are kept apart here.

System: P. berghei NS (resistant to chlorquine)
Experiment: 4-day suppressive test (blood schizontocidal activity), chess-board / isobologram analysis
Format: in vivo, Plasmodium berghei
Conditions: for ED50 / ED90: Plasmodium berghei, in Mus musculus, po; for group mean of parasitaemia as of control: male Swiss mice, D + 4, ± standard error; for parasitaemia: Arteether alone, male mouse, Table II (extended doses)
Protocol: The evaluation of blood schizontocidal activities was carried out following the procedure described herein after using the Chloroquine-resistant strain of P. berghei (NS) strain. (Chawira A. N., et al. 1987, Trans, R. Soc. Trop. Med. Hyg. 81 : 554-558).
The methodology followed in the present study was adopted form "4- day suppressive test" (ref. Peters, W.; 1987, Chemotherapy and Drug Resistance in Malaria, Vol. 1, p 111). The experimental data has been analysed by Chess Board Method in the form of an isobologram, (Ref. Chawira A. N., and Warhurst D. C.; 1987, J. Trop. Med. Hyg. 90 : 1-8). ED₅₀ and ED₉₀ was determined using a log-probit method.
Host .. Swiss Mice (20-22 gms) Sex .. Male Parasit .. P. berghei NS (resistant to chlorquine) Route of Infection .. Intravenous Route of drug Administration .. per os
Artheether : A few drops of Kardi oil and Tween^R 80 were added to Arteether to make a paste, followed by 0.5 % Tylose^R (Carboxy methyl cellulose) solution. A homogenous suspension was prepared using a tissue homogenizer in Teflon^R coated glass tube. […] Mefloquine HCl : A solution was prepared in 0.5 % Tylose using a tissue homogenizer.
Drug was administered as follows: (+ 2 H, 24 H, 48 H, 72 H) Each day one dose for 4 days
Slides were drawn from individual mouse and stained with Giemsa on D + 4. The slides were examined under oil immersion lens and parasitaemia was recorded from 15 fields at random. The average of infected and uninfected erythrocytes was determined for each animal. Finally the average parasitaemia of the whole group was determined and considered as 100 % for comparison purposes with the treated group.
At least 5000 to 7500 erythrocytes were examined at random to determine the parasitaemia. In certain cases, where parasitaemia was extremely low 10000 to 15000 erythrocytes were examined.

`C=C[C@H]1C[N@@]2CC[C@H]1C[C@H]2[C@H](O)c1ccnc2ccc(OC)cc12` [Quinine] was tested, and the ED50 (read-out: ED50 of Quinine) was 61 mg/kg, the ED90 (read-out: ED90 of Quinine) was 110 mg/kg and the “group mean of parasitaemia as of control” value (Quinine 25 mg/kg X 4, p.o., no Arteether) was 92 ± 2.36. The “group mean of parasitaemia as of control” value (Quinine 37.5 mg/kg X 4, p.o., no Arteether) was 85 ± 5.8 and the “group mean of parasitaemia as of control” value (Quinine 50 mg/kg X 4, p.o., no Arteether) was 70 ± 11.8.
`CCO[C@H]1O[C@@H]2O[C@@]3(C)CC[C@H]4[C@H](C)CC[C@@H]([C@H]1C)[C@@]24OO3` [Arteether] was tested, and the “group mean of parasitaemia as of control” value (Arteether 0.25 mg/kg X 4, p.o., no Quinine) was 90 ± 13.9, the “group mean of parasitaemia as of control” value (Arteether 0.5 mg/kg X 4, p.o., no Quinine) was 87 ± 10.8 and the “group mean of parasitaemia as of control” value (Arteether 1.0 mg/kg X 4, p.o., no Quinine) was 84 ± 10.8. The “group mean of parasitaemia as of control” value (Arteether 2.0 mg/kg X 4, p.o., no Quinine) was 77 ± 1.27, the parasitaemia (Dose 2.0 mg/kg X 4) was 82 and the parasitaemia (Dose 3.0 mg/kg X 4) was 57. The parasitaemia (Dose 4.0 mg/kg X 4) was 25, the parasitaemia (Dose 5.0 mg/kg X 4) was 12 and the ED50 was 2.8 mg/kg. It also gave an ED90 of 5.2 mg/kg, an ED50 (read-out: ED50 of Arteether) of 2.8 mg/kg and an ED90 (read-out: ED90 of Arteether) of 5.2 mg/kg.
